In patent US5519024A, “Quinolonecarboxylic acid derivatives and their use” (Takeda Chemical Industries, Ltd., priority 1993, dated 1996):
Read-outs that look alike come from different tables or passages of the source.

Target: T1, GPIIb/IIIa (Homo sapiens, UniProt P05106+P08514)
T1 construct: Purification of GPIIb/IIIa from HEL cells; endogenous in cells; host or cells: HEL cells (HEL 92.1.7, ATCC TIB180); endogenous complex solubilized with Triton X-100 and purified in house
Experiment: Inhibitory activity against binding of GPIIb/IIIa and fibrinogen
Settings: for inhibition at 10 µM / inhibition at 1 µM: read-out: GPIIb/IIIa Fibrinogen Binding Inhibitory Activity
Experimental: Test Example 1: Inhibitory activity against binding of GPIIb/IIIa and fibrinogen
(1) Cultivation of human erythroleukemia-derived cell line (hereinafter referred to as HEL cells)
HEL cells (HEl92.1.7; ATCC No. TIB180) were purchased from ATCC (Rockville, Md., U.S.A.). The medium was RPMI medium (GIBCO Laboratories, Grand Island, N..Y, U.S.A.) containing 40 mM N-2-hydroxyethylpiperazine-N'-2-ethanesulfonic acid (hereinafter referred to as HEPES) (pH 7.0), 0.2% NaHCO3, 100 μg/ml kanamycin and 10% FCS. The cells were cultured in the presence of 5% CO2 at 37° C., with the medium replaced with a fresh medium to obtain a 4- to 5-fold dilution at intervals of 3 to 4 days.
(2) Purification of GPIIb/IIIa from HEL cells
GPIIb/IIIa was purified by a modification of the method of L. A. Fitzgerald et al. [J. Biol. Chem., 262, 3936 (1987)] as follows: All purification was conducted at room temperature, unless otherwise stated. At 7 days of cultivation, cells were collected from the HEL cell culture broth (cell suspension) by centrifugation (1,000 ×g, 10 minutes, 4° C.). After washing with 20 mM Tris-HCl (pH 7.5) containing 1 mM EDTA and 150 mM NaCl, the cells were suspended in a solubilizing buffer (20 mM Tris-HCl, 150 mM NaCl, 1% Triton X-100, 1 mM MgCl2, 1 mM CaCl2, 0.1 mM (p-amidinophenyl)methanesulfonyl fluoride (hereinafter referred to as APMSF), 10 nM leupeptin, 0.02% NaN3, pH 7.4), followed by gentle stirring at 4° C. for 30 minutes, to solubilize the GPIIb/IIIa. The suspension was centrifuged (100,000 ×g, 1 hour) at 4° C., and the cell debris removed, to yield a cell extract. The cell extract was passed through a Heparin-Sepharose CL-6B column (Pharmacia LKB) and a DEAE-Toyopearl 650M column (Tosoh), both previously equilibrated with a column buffer (20 mM Tris-HCl, 150 mM NaCl, 0.1% Triton X-100, 1 mM MgCl2, 1 mM CaCl2, 0.1 mM APMSF, 1 nM leupeptin, 0.05% NaN3, pH 7.4). The effluent was applied to a ConA-Sepharose column (Pharmacia LKB), previously equilibrated with the same column buffer as above, to adsorb the GPIIb/IIIa, followed by elution with the same column buffer but containing 0.5M methyl α-D-mannopyranoside. The eluted fraction was concentrated at 4° C. using an ultrafiltration apparatus (Amicon Corporation the fraction's molecular weight of 10,000), after which it was subjected to gel filtration through a Sephacryl S-300 column (Pharmacia LKB), previously equilibrated with the same column buffer, to yield a purified standard sample.
(3) Biotinization of human fibrinogen
Conducted by the method of I. F. Charo [I. F. Charo et al., J. Biol. Chem., 266, 1415 (1991)].
Human fibrinogen (Kabi Vitrum AB) was dissolved in PBS to 5 mg/ml and then dialyzed at 4° C. against 0.1M carbonate buffer (pH 8.2) containing 0.1M NaCl. After dialysis, insoluble substances were removed by centrifugation (100,000 ×g, 30 minutes), and the dialyzate was diluted to 1 mg/ml with the same buffer. To this dilution, sulfo-N-hydroxysuccinimidebiotin (Pierce Chemical Co.) was added to a final concentration of 0.2 mg/ml, followed by gentle mixing at room temperature for 30 minutes, to biotinize the fibrinogen. After completion of the reaction, the mixture was dialyzed against 0.05M Tris-HCl buffer (pH 7.4) containing 0.1M NaCl and 0.05% NaN3.
(4) Determination of inhibitory activity against fibrinogen binding
Conducted by a modification of the method of I. F. Charo [I. F. Charo et al., J. Biol. Chem., 266, 1415 (1991)] as follows: The purified GPIIb/IIIa was diluted to 1 μg/ml with buffer A (20 mM Tris-HCl, 150 mM NaCl, 1 mM CaCl2, 0.02% NaN3, pH 7.4). A 100 μl aliquot of this dilution was dispensed to a 96-well microplate (Maxisorp, produced by Nunc), and the plate kept standing at 4° C., to adsorb the GPIIb/IIIa to the microplate. Next, 150 μl of buffer B (35 mg/ml BSA, 50 mM Tris-HCl, 100 mM NaCl, 2 mM CaCl2, 0.02% NaN3, pH 7.4) was added, followed by 2 hours of blocking at 30° C. […]

T1 sequence (P08514 32-887 limits assumed): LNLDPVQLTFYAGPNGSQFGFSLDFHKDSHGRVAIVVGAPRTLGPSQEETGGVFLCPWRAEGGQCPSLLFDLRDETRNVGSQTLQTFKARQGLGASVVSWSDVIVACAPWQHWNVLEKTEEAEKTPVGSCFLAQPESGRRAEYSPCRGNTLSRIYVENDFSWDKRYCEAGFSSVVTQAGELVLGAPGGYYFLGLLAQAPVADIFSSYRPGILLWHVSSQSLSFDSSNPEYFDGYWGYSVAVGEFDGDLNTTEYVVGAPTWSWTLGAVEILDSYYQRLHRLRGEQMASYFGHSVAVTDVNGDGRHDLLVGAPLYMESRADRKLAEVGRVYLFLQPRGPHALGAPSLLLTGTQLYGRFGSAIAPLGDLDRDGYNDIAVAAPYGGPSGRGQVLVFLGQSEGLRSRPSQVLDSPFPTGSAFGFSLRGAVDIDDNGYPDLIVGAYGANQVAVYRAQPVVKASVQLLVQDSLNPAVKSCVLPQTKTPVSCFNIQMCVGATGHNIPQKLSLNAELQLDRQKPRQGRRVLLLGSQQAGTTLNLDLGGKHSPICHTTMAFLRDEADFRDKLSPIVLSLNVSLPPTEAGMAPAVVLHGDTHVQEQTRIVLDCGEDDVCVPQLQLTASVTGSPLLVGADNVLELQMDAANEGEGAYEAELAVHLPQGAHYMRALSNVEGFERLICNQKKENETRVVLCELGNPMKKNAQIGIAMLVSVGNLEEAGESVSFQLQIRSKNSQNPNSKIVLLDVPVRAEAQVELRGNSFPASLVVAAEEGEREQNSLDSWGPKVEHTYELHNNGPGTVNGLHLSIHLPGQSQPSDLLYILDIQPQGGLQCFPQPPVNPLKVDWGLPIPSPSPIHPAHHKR
T1 sequence (P08514 891-1039 limits assumed): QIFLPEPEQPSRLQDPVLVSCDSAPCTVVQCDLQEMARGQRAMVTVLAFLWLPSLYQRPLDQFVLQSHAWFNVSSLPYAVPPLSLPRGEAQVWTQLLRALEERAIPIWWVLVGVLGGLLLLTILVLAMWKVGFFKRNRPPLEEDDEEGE
T1 sequence (P05106 27-788): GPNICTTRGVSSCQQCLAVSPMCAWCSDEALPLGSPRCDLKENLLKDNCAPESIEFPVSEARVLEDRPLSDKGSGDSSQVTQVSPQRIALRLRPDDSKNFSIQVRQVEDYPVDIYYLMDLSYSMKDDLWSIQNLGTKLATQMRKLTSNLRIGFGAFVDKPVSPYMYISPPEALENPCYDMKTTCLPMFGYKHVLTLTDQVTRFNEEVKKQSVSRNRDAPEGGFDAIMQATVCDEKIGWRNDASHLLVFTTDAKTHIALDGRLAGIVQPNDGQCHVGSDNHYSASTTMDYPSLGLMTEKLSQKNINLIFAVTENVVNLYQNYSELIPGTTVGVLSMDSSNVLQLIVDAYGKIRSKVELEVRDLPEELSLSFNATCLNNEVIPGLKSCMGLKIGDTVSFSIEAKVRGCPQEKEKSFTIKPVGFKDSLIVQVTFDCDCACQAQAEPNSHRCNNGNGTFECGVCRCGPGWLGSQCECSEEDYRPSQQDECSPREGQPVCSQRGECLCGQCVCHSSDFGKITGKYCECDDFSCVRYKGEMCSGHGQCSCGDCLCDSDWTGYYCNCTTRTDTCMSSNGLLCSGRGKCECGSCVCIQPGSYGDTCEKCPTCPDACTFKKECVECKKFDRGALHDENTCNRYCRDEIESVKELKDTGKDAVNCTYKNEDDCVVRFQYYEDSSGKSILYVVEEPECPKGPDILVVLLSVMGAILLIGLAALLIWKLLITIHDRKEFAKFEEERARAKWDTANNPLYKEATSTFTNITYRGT

SMILES | inhibition at 10 µM (Table 2, 10^-5 M) [%] | inhibition at 1 µM (Table 2, 10^-6 M) [%] | also measured
O=C(O)c1cn(Cc2nccs2)c2c(F)c(N3CCN(c4ccncc4)CC3)c(F)cc2c1=O [Compound 64] | 100 | 100 | –
CN1CCN(c2c(F)cc3c(=O)c(C(=O)O)cn4c3c2N(C)CC4)CC1 [Compound 53, 9-Fluoro-1-methyl-10-(4-methylpiperazin-1-yl) 7-oxo-2,3-dihydro-1H,7H-pyrido[1,2,3-de]quinoxaline-6-carboxylic acid] | 89.5 | 47.6 | –
O=C(O)c1cn(C2CC2)c2c(F)c(N3CCN4CCC[C@@H]4C3)c(F)cc2c1=O [Compound 33] | – | – | GPIIb/IIIa Fibrinogen Binding Inhibitory Activity (Table 2, 10^-5 M): 68.3%; GPIIb/IIIa Fibrinogen Binding Inhibitory Activity (Table 2, 10^-6 M): 33.6%
O=C(O)c1cn(Cc2nccs2)c2c(F)c(N3CCn4ccnc4C3)c(F)cc2c1=O [Compound 51] | 97.5 | 88.1 | –
CN(C)CCn1cc(C(=O)O)c(=O)c2cc(F)c(N3CCN(C)CC3)cc21 [Compound 13] | 70.5 | 54.7 | –
O=C(O)c1cn(Cc2ccccc2)c2c(F)c(N3CCNCC3)c(F)cc2c1=O [Compound 55, 1-Benzyl-6,8-difluoro-7-(1-piperazinyl)-1,4-dihydro-4-oxoquinoline-3-carboxylic acid] | 100 | 93.8 | –
COc1ccc(Cn2cc(C(=O)O)c(=O)c3ccc(N4CCC(C5CCNCC5)CC4)cc32)cc1 [Compound 77, 1-(4-Methoxybenzyl)-7-[4-(4-piperidinyl)piperidin-1-yl]-1,4-dihydro-4-oxoquinoline-3-carboxylic acid] | 94.5 | 100 | –
O=C(O)c1cn(C2CC2)c2c(F)c(N3CCc4ccccc4C3)c(F)cc2c1=O [Compound 34] | 77 | 49.4 | –
CC(=O)N1CC(n2cc(C(=O)O)c(=O)c3cc(F)c(N4CCN(C)CC4)c(F)c32)C1 [Compound 15] | 60.5 | 33.9 | –
CCn1cc(C(=O)O)c(=O)c2cc(F)c(N3CCN4CCCC4C3)c(F)c21 (stereo not shown) [Compound 6] | 83.3 | 39.3 | –
NCC1CN(c2c(F)cc3c(=O)c(C(=O)O)cn(C4CC4)c3c2F)Cc2ccccc21 (stereo not shown) [Compound 37] | 60.1 | 32.5 | –
NCCN1CCN(c2c(F)cc3c(=O)c(C(=O)O)cn(Cc4nccs4)c3c2F)CC1 [Compound 70] | 100 | 95.9 | –
O=C(O)c1cn(C2CC2)c2c(F)c(N3CCNCC3)c(F)cc2c1=O [Compound 22] | 72.7 | 39.8 | –
O=C(O)c1cn2c3c(c(N4CCn5ccnc5C4)c(F)cc3c1=O)OCC2 [Compound 52, 9-Fluoro-10-(5,6,7,8-tetrahydroimidazo[1,2-a]pyrazin-7-yl)-2,3-dihydro-7-oxo-7H-pyrido[1,2,3-a][1,4]benzoxazine-6-carboxylic acid] | 90.8 | 55 | –
NC1CCN(c2nc3c(cc2F)c(=O)c(C(=O)O)cn3-c2ccc(F)cc2F)C1 (stereo not shown) [Tosufloxacin, reference compound] | – | – | inhibition at 10 µM (Table 1, 1 × 10^-5 M): 37.6%; inhibition at 1 µM (Table 1, 1 × 10^-6 M): 30.7%
CN(C)CCN(C)c1nc2c(cc1F)c(=O)c(C(=O)O)cn2C1CC1 [Compound 21] | 69.9 | 31.3 | –
CCn1cc(C(=O)O)c(=O)c2cc(F)c(N3CCN(Cc4ccccn4)CC3)cc21 [Compound 4] | 70.9 | 33 | –
CCn1cc(C(=O)O)c(=O)c2cc(F)c(N3CCNCC3)nc21 [Enoxacin, reference compound] | – | – | inhibition at 10 µM (Table 1, 1 × 10^-5 M): 62%; inhibition at 1 µM (Table 1, 1 × 10^-6 M): 24.3%
CN1CCN(C(=O)CCCNc2c(F)cc3c(=O)c(C(=O)O)cn(C4CC4)c3c2F)CC1 [Compound 42] | 67.3 | 38.6 | –
O=C(O)c1cn(Cc2nccs2)c2c(F)c(N3CCN(c4cccnc4)CC3)c(F)cc2c1=O [Compound 66] | 100 | 86.7 | –
